# Assay results reported in ChEMBL document CHEMBL1133121, “4-(1,3-Dimethoxyprop-2-ylamino)-2,7-dimethyl-8-(2, 4-dichlorophenyl)pyrazolo[1,5-a]-1,3,5-triazine: a potent, orally bioavailable CRF(1) receptor antagonist” (J Med Chem, 2000).
# Several values for one entry are separate records, joined by “and”; a condition that tells them apart may be missing. Identical values can stand only once.
# Legend:
# [1] = target: T1, Corticotropin-releasing factor receptor 1 (Homo sapiens, UniProt P34998); assay: Displacement of [125I]-tyrosine-ovine-CRF from human Corticotropin releasing factor receptor 1
# T1 sequence (P34998 whole entry): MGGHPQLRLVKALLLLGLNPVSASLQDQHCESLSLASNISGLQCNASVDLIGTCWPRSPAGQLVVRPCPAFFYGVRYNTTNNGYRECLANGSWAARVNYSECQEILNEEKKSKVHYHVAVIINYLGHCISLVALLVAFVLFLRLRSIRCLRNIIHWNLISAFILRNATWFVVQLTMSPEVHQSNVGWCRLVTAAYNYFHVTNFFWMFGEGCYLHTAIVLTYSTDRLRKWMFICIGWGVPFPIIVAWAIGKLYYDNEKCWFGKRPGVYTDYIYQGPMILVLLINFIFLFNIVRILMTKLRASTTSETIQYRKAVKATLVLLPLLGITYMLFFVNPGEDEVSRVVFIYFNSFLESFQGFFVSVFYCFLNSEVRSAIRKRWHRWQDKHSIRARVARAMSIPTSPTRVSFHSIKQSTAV
# [2] = organism: Rattus norvegicus; assay: %binding inhibition in rat ex vivo assay after three hours; type: functional; parameters: concentration or dose not given beside the values
# [3] = organism: Rattus norvegicus; assay: %binding inhibition in rat ex vivo assay after one hour; type: functional; parameters: concentration or dose not given beside the values
# [4] = organism: Rattus norvegicus; assay: % binding inhibition in rat ex vivo assay after one hour; type: functional
# [5] = organism: Rattus norvegicus; assay: % binding inhibition in rat ex vivo assay after three hours; type: functional
# [6] = C5min (nM) value was determined in rats after intravenous dose of 5 mg/kg; type: ADME, organism-based; parameters: dose 5 mg/kg, route intravenous; settings: rat, in vivo, read-out: C5 min
# [7] = C5min (nM) value was determined in dogs after intravenous dose of 1 mg/kg; type: ADME, organism-based, Canis lupus familiaris; parameters: dose 1 mg/kg, route intravenous; settings: dog, in vivo, read-out: C5 min
# [8] = %bioavail value was determined in rats after po dose of 5 mg/kg; type: ADME, organism-based; parameters: dose 5 mg/kg, route oral; settings: rat, in vivo, read-out: Bioavailabiility
# [9] = Cmax(nM)value was determined in rats after po dose of 5 mg/kg; type: ADME, organism-based; parameters: dose 5 mg/kg, route oral; settings: rat, in vivo
# [10] = CL (L/h/kg) value was determined in dogs after intravenous dose of 1 mg/kg; type: ADME, organism-based, Canis lupus familiaris; parameters: dose 1 mg/kg, route intravenous; settings: dog, in vivo, read-out: Vss (converted)
# [11] = Vss(L/kg) value was determined in rats after intravenous dose of 5 mg/kg; type: ADME, organism-based; parameters: dose 5 mg/kg, route intravenous; settings: rat, in vivo, read-out: Vss
# [12] = Vss(L/kg)value was determined in dogs after intravenous dose of 1 mg/kg; type: ADME, organism-based, Canis lupus familiaris; parameters: dose 1 mg/kg, route intravenous; settings: dog, in vivo, read-out: Vss
# [13] = test system: Rattus norvegicus; assay: AUC(nM.h) value was determined in rats after po dose of 5 mg/kg; type: ADME, organism-based, Plasma; parameters: dose 5 mg/kg, route oral; settings: in vivo
# [14] = test system: Canis familiaris; assay: AUC(nM.h) value was determined in dogs after intravenous dose of 1 mg/kg; type: ADME, organism-based, Canis lupus familiaris, Plasma; parameters: dose 1 mg/kg, route intravenous; settings: dog, in vivo
# [15] = test system: Canis familiaris; assay: AUC(nM.h) value was determined in dogs after po dose of 1 mg/kg; type: ADME, organism-based, Canis lupus familiaris, Plasma; parameters: dose 1 mg/kg, route oral; settings: dog, in vivo
# [16] = Tmax(h)value was determined in dogs after po dose of 1 mg/kg; type: ADME, organism-based, Canis lupus familiaris; parameters: dose 1 mg/kg, route oral; settings: dog, in vivo
# [17] = Tmax(h)value was determined in rats after po dose of 5 mg/kg; type: ADME, organism-based; parameters: dose 5 mg/kg, route oral; settings: rat, in vivo
# [18] = test system: Rattus norvegicus; assay: AUCT(nM.h) value was determined in rats after po dose of 5 mg/kg; type: ADME, organism-based, Plasma; parameters: dose 5 mg/kg, route oral; settings: in vivo
# [19] = test system: Canis familiaris; assay: AUCT(nM.h) value was determined in dogs after intravenous dose of 1 mg/kg; type: ADME, organism-based, Canis lupus familiaris, Plasma; parameters: dose 1 mg/kg, route intravenous; settings: dog, in vivo
# [20] = test system: Canis familiaris; assay: AUCT(nM.h) value was determined in dogs after po dose of 1 mg/kg; type: ADME, organism-based, Canis lupus familiaris, Plasma; parameters: dose 1 mg/kg, route oral; settings: dog, in vivo
# [21] = t1/2 (h) value was determined in rats after po dose of 5 mg/kg; type: ADME, organism-based; parameters: dose 5 mg/kg, route oral; settings: rat, in vivo
# [22] = t1/2 (h) value was determined in dogs after intravenous dose of 1 mg/kg; type: ADME, organism-based, Canis lupus familiaris; parameters: dose 1 mg/kg, route intravenous; settings: dog, in vivo
# [23] = t1/2 (h) value was determined in dogs after po dose of 1 mg/kg; type: ADME, organism-based, Canis lupus familiaris; parameters: dose 1 mg/kg, route oral; settings: dog, in vivo
# [24] = test system: Rattus norvegicus; assay: (§1) Tested for situational anxiety in rats by measuring the latency exit from a chamber after po administration; type: functional
# [25] = test system: Rattus norvegicus; assay: as §1; type: functional; remark: listed apart in the source
# [26] = test system: Rattus norvegicus; assay: as §1; type: functional; remark: listed apart in the source
# [27] = t1/2 (h) value of was determined in rats after intravenous dose of 5 mg/kg; type: ADME, organism-based; parameters: dose 5 mg/kg, route intravenous; settings: rat, in vivo
# [28] = % bioavailability value was determined in dogs after po dose of 1 mg/kg; type: ADME, organism-based, Canis lupus familiaris; settings: dog, in vivo, read-out: Bioavailabiility
# [29] = test system: Rattus norvegicus; assay: CL(L/h/kg) value was determined in rats after intravenous dose of 5 mg/kg; type: ADME, organism-based; parameters: dose 5 mg/kg, route intravenous; settings: in vivo
# [30] = test system: Rattus norvegicus; assay: as §1; type: functional; remark: listed apart in the source
# [31] = test system: Rattus norvegicus; assay: Tested for situational anxiety in rats by measuring the latency exit from a chamber after po comparison with the activity values; type: functional
structure (smiles),measurement,setting,value
CCCC(CCC)Nc1nc(C)nc2c(-c3ccc(Cl)cc3Cl)c(C)nn12,Ki,[1],1.6 nM
same,Binding inhibition,[2],74.8%
same,Binding inhibition,[3],63.9%
CCC(COC)Nc1nc(C)nc2c(-c3ccc(Cl)cc3Cl)c(C)nn12 (centres undefined),Ki,[1],1.9 nM
CCCC(CC)Nc1nc(C)nc2c(-c3ccc(Cl)cc3Cl)c(C)nn12 (centres undefined),Ki,[1],1.2 nM
same,Binding inhibition,[2],67%
same,Binding inhibition,[3],46.6%
CCCN(CC1CC1)c1nc(C)nc2c(-c3ccc(Cl)cc3Cl)c(C)nn12,Ki,[1],0.7 nM
same,Binding inhibition,[2],95.4%
same,Binding inhibition,[3],73.3%
COCCN(CCOC)c1nc(C)nc2c(-c3ccc(Cl)cc3Cl)c(C)nn12,Ki,[1],1.8 nM
same,Binding inhibition,[2],92.9%
same,Binding inhibition,[3],85.4%
CCCCC(CC)Nc1nc(C)nc2c(-c3ccc(Cl)cc3Cl)c(C)nn12 (centres undefined),Ki,[1],1.6 nM
CCOCC(COCC)Nc1nc(C)nc2c(-c3ccc(Cl)cc3Cl)c(C)nn12,Ki,[1],6.2 nM
Cc1nc(N(C)c2ccccc2)n2nc(C)c(-c3ccc(Cl)cc3Cl)c2n1,Ki,[1],44.5 nM
CCC(CC)Nc1nc(C)nc2c(-c3ccc(Cl)cc3Cl)c(C)nn12,Ki,[1],1.1 nM
same,Binding inhibition,[2],71.8%
same,Binding inhibition,[3],65.9%
CCCCN(CC)c1nc(C)nc2c(-c3ccc(Cl)cc3Cl)c(C)nn12,Ki,[1],0.4 nM
same,Binding inhibition,[4],73.2%
same,Binding inhibition,[5],82.9%
CCCN(CCC)c1nc(C)nc2c(-c3ccc(Cl)cc3Cl)c(C)nn12,Ki,[1],0.6 nM
COCC(COC)Nc1nc(C)nc2c(-c3ccc(Cl)cc3Cl)c(C)nn12,concentration at 5 min,[6],2880 nM
same,concentration at 5 min,[7],1370 nM
same,bioavailability,[8],36.7%
same,Cmax,[9],317 nM
same,clearance,[10],15.8 mL/min/kg
same,Vd,[11],21.5 L/kg
same,Vd,[12],27.1 L/kg
same,AUC,[13],2.26 µM·h
same,AUC,[14],2.69 µM·h
same,AUC,[15],555 Nm.H
same,Tmax,[16],0.88 h
same,Tmax,[17],0.44 h
same,AUC T,[18],1.86 µM·h
same,AUC T,[19],2.27 µM·h
same,AUC T,[20],0.469 µM·h
same,half-life,[21],16.5 h
same,half-life,[22],34.5 h
same,half-life,[23],33.4 h
same,Ki,[1],1.7 nM
same,Binding inhibition,[2],81.3%
same,Latency to exit,[24],680
same,Latency to exit,[25],<482
same,Latency to exit,[26],<408
same,half-life,[27],12.3 h
same,bioavailability,[28],49.7%
same,CL,[29],2 kg⁻¹ h⁻¹
same,Latency to exit,[30],<426 and <286
same,Binding inhibition,[3],78.2%
CCCCN(CC)c1nc(C)nc2c1c(C)cn2-c1c(C)cc(C)cc1C.Cl,Binding inhibition,[2],<10%
same,Binding inhibition,[3],<10%
CNC1=Nc2ccc(Cl)cc2C(c2ccccc2)=[N+]([O-])C1 [CHLORDIAZEPOXIDE],Latency to exit,[31],<216
